This is an account of results in patent EP1598418A1, “STABILISED COMPOSITION FOR FLUORIMETRIC, COLORIMETRIC OR CHEMOLUMINESCENT ASSAYS, KITS CONTAINING SAME AND PRODUCTION METHOD THEREOF” (BIOTOOLS BIOTECHNOLOGICAL & MEDICAL LABORATORIES, S.A., priority 2003, dated 2004).

One test deals with FRET probes. Description: Real-time amplification with desiccated, stabilised reaction mixture with FRET probes after storage (Example 1). Format: biochemical, P. falciparum. Conditions: vs fresh mixture.
The test system of a further test is TaqMan probes. Description: Real-time amplification with desiccated, stabilised reaction mixture with TaqMan probes after storage (Example 2). Format: biochemical, P. falciparum. Conditions: vs fresh mixture. (In qPCR the cycle at which signal appears reflects the starting amount.)
Test [1] has as its system Molecular Beacon (MB) probe. Description: Real-time amplification with desiccated, stabilised reaction mixture with Molecular Beacon probe after storage (Example 3). Format: biochemical, P. falciparum. Conditions: vs fresh mixture.
Another test concerns Scorpion probes. Description: Real-time amplification with desiccated, stabilised reaction mixture with Scorpion probes after storage (Example 4). Format: biochemical, M. tuberculosis. Conditions: conserved at T 25 °C, vs fresh mixture.
Test [2] deals with reaction mixture with SYBR Green. Description: Real-time amplification with desiccated, stabilised reaction mixture with SYBR Green after storage (Example 5). Format: biochemical, oncogenic papillomaviruses. Conditions: conserved at T 25 °C, vs fresh mixture. How it is done: To test the efficiency of intercalated fluorophores such as SYBR Green included in desiccated and stabilised reaction mixtures, reaction mixtures were prepared for amplifying a 250 bp fragment corresponding to region E6-E7 of oncogenic papillomaviruses, using the same reagents as described in Example 1. In this case the unit "DNA Engine OPTICON™ 2 System" (MJ Research) was used. […] Also to each phial was added […] of SYBR Green 1 (Molecular probes).
Various tubes were prepared as described above, adding to each the suitable volume of each stabilising mixture shown in Table 1.
In parallel, in order to check the evolution of the activity of the desiccated tubes, DNA samples were amplified using a fresh mixture in the same amplification conditions.
The result of the amplification reaction was analysed in every case by inspecting the fluorescence curve and determining the crossing point, following the instructions of the equipment software, for each reaction tube both fresh and desiccated and stabilised. […] The samples of patients infected with oncogenic HPV gave positive results in every case, while patients infected with non-oncogenic HPV, or not infected with HPV, gave negative results in every case.

Test [3] has as its system DTCS Quick Start Master Mix. Description: Sequencing reaction with desiccated, stabilised mixture with fluorescent terminators after storage (Example 6). Format: biochemical, human papillomavirus. Conditions: vs fresh mixture. How it is done:
To test the possibility of gelling reaction mixtures for sequencing nucleic acids the CEQ 200 Dye Terminator Cycle Sequencing (DTCS) Quick Start Kit (Beckman Coulter) was employed, which uses a PCR sequencing system in a single tube by incorporating four different fluorescent terminators. The sequencing reactions were later analysed in a CEQ 2000 XL DNA Analysis System (Beckman Coulter) capillary electrophoresis automatic sequencing system.
Reaction mixtures were prepared containing 4 microlitres of DTCS Quick Start Master Mix, 1 microlitre of universal primer M13-17 and the suitable volume of each stabilising mixture shown in Table 1.
In parallel, in order to check the evolution of the activity of the desiccated and stabilised tubes, the same plasmid was sequenced using a fresh sequencing mixture in standard conditions. Finally, the sequencing reactions were analysed in the CEQ 200XL system following the supplier's instructions.

Test [4] concerns oligonucleotides chemically modified by including biotin and/or digoxygenin groups. Description: Amplification with desiccated biotin/digoxygenin oligonucleotides and colorimetric ELISA plate assay (Example 7). Format: biochemical, oncogenic HPV. Conditions: vs fresh mixture. The protocol: To do so, 4 oligonucleotides were designed that hybridised with the genome of region E6-E7 of oncogenic HPV species.
To do so, an ELISA microplate with a high-binding capacity to streptoavidin (Biospa) was activated following a standard fixing protocol. Then, after blocking the plate by incubation with gelatine, the amplified products of the stabilising mixtures 1, 2 and 3 described in Example 7.A were analysed by a colorimetry assay according to the following experimental process: • A.- Amplification products using an onligonucleotide marked with digoxygenin (mixture 1 in Example 7.A). The biotinated probe A11 was fixed to the plate and the amplified product was hybridised. […] The amplification product was fixed to the plate with the first biotinilate and then hybridised with the first A12 marked with digoxygenin.

The subject of test [5] is streptoavidin conjugated with HRP (Str-HRP) and anti-digoxygenin conjugated with alkaline phospatase (anti-DIG-AP). Description: Colorimetric ELISA plate activity test of desiccated, stabilised conjugates (Example 8). Format: biochemical, HPV 16. Conditions: conserved at T 25 °C, vs fresh mixture. How it is done:
In 0.2 ml amplification tubes were added 100 microlitres of a 1/250 dilution in a blocking solution of the conjugate Str-HRP (Biospa). In parallel, 0.2 ml phials were prepared in which 100 microlitres were added of a 1/250 dilution in a blocking solution of anti-DIG-AP (Sigma).
For the activity assay of the conjugate anti-DIG-AP an ELISA plate was used in which the dimples had been previously coated with streptoavidin. For the activity assay of conjugate Str-HRP a plate was used instead with dimples previously coated with anti-DIG antibodies. The amplified products were incubated in each plate to allow the immobilisation of the amplicons in the plate.

Another test deals with antidigoxygenin antibody. Description: Colorimetry assay of stabilised protein immobilised in ELISA microplates (Example 10.2). Format: biochemical, HPV. Conditions: vs fresh mixture. How it is done:
To do so each dimple was incubated with 1µg of antidigoxygenin antibody (Roche).
The amplified product was incubated for 30 minutes in the dimples with the antibody immobilised. The amplified products immobilised in the plate by the union of the digoxygenin group of the amplicons and the immobilised anti-digoxygenin group were analysed by a colorimetric assay. […] The colorimetric reaction was finally analysed by measuring absorption at 415 nm.

Test [6] deals with nucleic acids immobilised in modified glasses. Description: Colorimetric assay of stabilised nucleic acids immobilised in modified glasses (Example 10.3). Format: biochemical, HPV 16. Conditions: vs fresh mixture. How it is done: Approach 1. Stabilisation of supports with previously fixed nucleic acids. HPV specific probes were fixed to glass supports pre-treated with polylysiun, aldehyde, epoxy, superepoxy and silane. To do so, in each support slide 1 microlitre spots were applied of the solution of each oligonucleotide at a concentration of 20 µM in the conditions indicated for each glass format. The slides with the immobilised oligonucleotides were then coated with a thin layer of each of the stabilising mixtures and then desiccated in a vacuum oven at 25°C and 50 mbar pressure.
Approach 2. Fixation to the slides of the nucleic acids pre-mixed with the stabilising mixtures. A mixture was prepared of each of the probes with the suitable volumes of the stabilising mixtures described in Table 1. Then the mixtures of oligonucleotides were applied to the various slides with the fixing conditions indicated for each glass format.
To test the viability of each slide prepared, a colorimetric assay was performed with formation of precipitate products. To do so, the slides were washed for 5 minutes in PBS 1X at room temperature to eliminate the protective layer. Then the slides were incubated in the presence of an amplified and previously denatured HPV 16 product using the probes A11 and A12.

Test [7] relates to Anti-digoxygenin antibodies. Description: Colorimetric assay of stabilised proteins immobilised in modified glasses (Example 10.4). Format: biochemical, P. falciparum. Conditions: vs fresh mixture. The protocol:
To test the possibility of stabilising proteins that have been previously immobilised in pre-treated glass supports, the usual format of microarray systems, two different alternatives were tested as in the previous experiment.
Approach 1. Stabilisation of supports with previously fixed protein. Anti-digoxygenin antibodies were fixed to glass supports pre-treated with aldehyde. To do so, in each support slide 1 microlitre spots were applied of the solution of each protein at a concentration of 30 ng/µl. The slides with the immobilised protein were then coated with a thin layer of each of the stabilising mixtures and then desiccated in a vacuum oven at 25°C and 50 mbar pressure.
Approach 2. Fixation to the slides of the protein pre-mixed with the stabilising mixtures. A mixture was prepared of each of the probes with the suitable volumes of the stabilising mixtures described in Table 1. Then the mixtures of protein were applied to the various slides with the fixing conditions indicated for each glass format.
To test the viability of each slide prepared, a colorimetric assay was performed with formation of precipitate products. To do so, the slides were washed for 5 minutes in PBS 1X at room temperature to eliminate the protective layer.

The test system of test [8] is probes marked with biotin or digoxygenin groups. Description: Synthesis of digoxygenin-marked probes with desiccated mixtures and molecular hybridisation test (Example 9). Conditions: vs fresh mixture.
Test [9] has as its system nucleic acids immobilised in ELISA microplates. Description: Amplification and colorimetric detection with stabilised nucleic acids immobilised in ELISA microplates (Example 10.1). Conditions: vs fresh mixture.
Another test has as its target avidin (Gallus gallus, UniProt P02701). Conditions: avidin/biotin complex; cited from earlier work.

Chain of avidin (P02701 25-152): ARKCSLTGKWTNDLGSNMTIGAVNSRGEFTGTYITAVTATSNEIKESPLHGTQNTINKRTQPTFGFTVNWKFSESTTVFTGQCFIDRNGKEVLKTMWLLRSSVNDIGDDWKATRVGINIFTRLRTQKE

Regarding `OC[C@H]1O[C@H](O[C@H]2O[C@H](CO)[C@@H](O)[C@H](O)[C@H]2O)[C@H](O)[C@@H](O)[C@@H]1O` [Trehalose], the “activity of stabilising mixtures” value is “++ (++, positive with 50-90% of the activity of the fresh mixture)” in the test on FRET probes (conserved at T 4 °C); “+ (+, weak positive, under 50% of the activity of the fresh mixture)” in the test on FRET probes (conserved at T 25 °C); “++ (++, positive with 50-90% of the activity of the fresh mixture)” in the test on TaqMan probes (conserved at T 4 °C); “+ (+, weak positive, under 50% of the activity of the fresh mixture)” with TaqMan probes (conserved at T 25 °C); “++ (++, positive with 50-90% of the activity of the fresh mixture)” in [1] (conserved at T 4 °C); “+ (+, weak positive, under 50% of the activity of the fresh mixture)” in test [1] (conserved at T 25 °C). The “activity of stabilising mixtures” value was “+ (+, weak positive, under 50% of the activity of the fresh mixture)” in the test with Scorpion probes; “+ (+, weak positive, under 50% of the activity of the fresh mixture)” in test [2]; “++ (++, positive with 50-90% of the activity of the fresh mixture)” in test [3] (conserved at T 4 °C); “+ (+, weak positive, under 50% of the activity of the fresh mixture)” in test [3] (conserved at T 25 °C); “++ (++, positive with 50-90% of the activity of the fresh mixture)” in test [4] (conserved at T 4 °C); “+ (+, weak positive, under 50% of the activity of the fresh mixture)” in [4] (conserved at T 25 °C). Further, the “activity of stabilising mixtures” value is listed as “+ (+, weak positive, under 50% of the activity of the fresh mixture)” in test [5]; “++ (++, positive with 50-90% of the activity of the fresh mixture)” in the test with antidigoxygenin antibody (conserved at T 4 °C); “+ (+, weak positive, under 50% of the activity of the fresh mixture)” with antidigoxygenin antibody (conserved at T 25 °C); “++ (++, positive with 50-90% of the activity of the fresh mixture)” in test [6] (conserved at T 4 °C); “+ (+, weak positive, under 50% of the activity of the fresh mixture)” in [6] (conserved at T 25 °C); “++ (++, positive with 50-90% of the activity of the fresh mixture)” in test [7] (conserved at T 4 °C). Besides, the “activity of stabilising mixtures” value in test [7] (conserved at T 25 °C) was “+ (+, weak positive, under 50% of the activity of the fresh mixture)”; in test [8] (conserved at T 4 °C) it was “++ (++, positive with 50-90% of the activity of the fresh mixture)”; in [8] (conserved at T 25 °C) it was “+ (+, weak positive, under 50% of the activity of the fresh mixture)”; in test [9] (conserved at T 4 °C), “++ (++, positive with 50-90% of the activity of the fresh mixture)”; in [9] (conserved at T 25 °C) it was “+ (+, weak positive, under 50% of the activity of the fresh mixture)”.
Take `O=C(O)CCCC[C@@H]1SC[C@@H]2NC(=O)N[C@@H]21` [biotin, Biotin]: the dissociation energy at avidin is 21 kcal/mol.
